We go through 16 compounds from patent US20260327243A1, “SPIRO-HETEROCYCLIC INHIBITORS OF KRAS G12C MUTANT PROTEINS AND USES THEREOF” (AMGEN INC., priority 2023, published 2026).

One test has as its system A549 cells. The test is described as follows: Cell Viability Assay, A549. The note with it: A549; human lung carcinoma; 72 h; CellTiter-Glo. It counts as cell-based. The method, then: (§1) MIA PaCa-2 (human pancreatic carcinoma; ATCC CRL-1420) or A549 (human lung carcinoma; ATCC CCL-185) cells were cultured in RPMI 1640 medium containing 10% fetal bovine serum and 1×penicillin/streptomycin/L-glutamine. Cells were seeded in 384-well plates at a density of 1.67E+04 cells/mL and incubated at 37° C., 5% CO2, overnight. Serially-diluted compound or DMSO was added to the cells, and plates were incubated at 37° C., 5% CO2 for 72 h. Cell viability was measured using a CellTiter-Glo® Luminescent Cell Viability Assay kit (Promega) according to the manufacturer's protocol. The luminescence signal of treated samples was normalized to DMSO control, and data were analyzed using a 4-parameter logistic model to calculate IC50 values.
(§2) The following data (Table 3) categorizes the IC50 of each compound for inhibiting enzymatic activity of KRAS^G12C in the indicated cells.

The subject of a further test is MIA PaCa-2 cells. The test is described as follows: Cell Viability Assay, MIA PaCa-2. Particulars: human pancreatic carcinoma, CellTiter-Glo. In kind it is cell-based. The method, then:
as §1, §2
(ATP-based viability assays read luminescence as a measure of living cells.)

Another test has as its target KRAS^G12C (Homo sapiens, UniProt P01116, C118A/G12C). Kind of test: Coupled Nucleotide Exchange Assay. Particulars: GDP-bound KRAS (aa 1-169) G12C/C118A; 2 h compound pre-incubation; SOS-mediated exchange, 30 min; cRAF binding (AlphaLISA). It counts as biochemical. The essentials:
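GDP-bound His-tagged KRAS aa 1-169 (G12C/C118A) pre-incubated 2 h with compound in 25 mM HEPES pH 7.4, 10 mM MgCl2, 0.01% Triton X-100 (±0.1% BSA), then SOS (aa 564-1049) plus GTP added for 30 min. GST-cRAF RBD binding read by AlphaLISA; DMSO-normalized, 4-parameter fit gives IC50.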

In general, IC50 refers to the concentration needed to halve the response being measured.

KRAS^G12C, sequence (P01116 1-169 isoform P01116-2 G12C/C118A): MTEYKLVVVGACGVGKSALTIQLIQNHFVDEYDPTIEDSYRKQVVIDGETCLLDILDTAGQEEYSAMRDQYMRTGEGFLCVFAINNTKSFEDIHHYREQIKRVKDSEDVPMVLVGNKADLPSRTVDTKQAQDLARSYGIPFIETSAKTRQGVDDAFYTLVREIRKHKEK

Consider `C=CC(=O)N1CCN([C@@H]2CN(c3cc(N4CC[C@]5(C[C@H]4C)OC[C@@H](COC)n4ncc(C)c45)nc(C(F)F)n3)[C@@H]2C)CC1` (single isomer, unassigned) [Compound 3-090-1], for which the 50% inhibitory concentration (IC50) was more than 5000 nM in the test with A549 cells; 193 nM in the test on MIA PaCa-2 cells (Homo sapiens, MIA PaCa-2, 72 h); 145 nM at KRAS^G12C.

For the compound `C=CC(=O)N1CCN([C@@H]2CN(c3cc(N4CC[C@]5(C[C@H]4C)OC4(COC4)c4nccc(C)c45)nc(C(F)(F)F)n3)[C@@H]2C)CC1` [Compound 3-104, 1-(4-((2R,3R)-1-(6-((2″R,5′R)-2″,4′-dimethyl-1″H-dispiro[oxetane-3,7′-furo[3,4-b]pyridine-5′,4″-piperidin]-1″- yl)-2-(trifluoromethyl)-4-pyrimidinyl)-2-methyl-3-azetidinyl)-1-piperazinyl)-2-propen-1-one], the IC50 with A549 cells is more than 5000 nM; with MIA PaCa-2 cells (Homo sapiens, MIA PaCa-2, 72 h), 81 nM; at KRAS^G12C, 21 nM.

Turning to `C=CC(=O)N1CCN([C@@H]2CN(c3cc(N4CCC5(OCC=C5C)C(C)C4)nc(C(F)(F)F)n3)[C@@H]2C)CC1` (relative stereo) [Compound 3-060, 1-(4-((2R,3R)-1-(6-((5R,6S)-4,6-Dimethyl-1-oxa-8-azaspiro[4.5]dec-3-en-8-yl)-2-(trifluoromethyl)pyrimidin-4-yl)-2-methylazetidin-3-yl)piperazin-1-yl) prop-2-en-1-one], the IC50 in the test with A549 cells is more than 5000 nM; in the test with MIA PaCa-2 cells (Homo sapiens, MIA PaCa-2, 72 h) it was 1090 nM; on KRAS^G12C, 406 nM.

Consider `C=CC(=O)N1CCN([C@@H]2CN(c3cc(N4CC[C@]5(C[C@H]4C)OC[C@H](CO)n4ncc(C)c45)nc(C(F)F)n3)[C@@H]2C)CC1` (single isomer, unassigned) [Compound 3-088-2], for which the IC50 is more than 5000 nM with A549 cells; 128 nM in the test with MIA PaCa-2 cells (Homo sapiens, MIA PaCa-2, 72 h); 72 nM at KRAS^G12C.

For the compound `C=CC(=O)N1CCN(C2CN(c3cc(N4CCC5(CC4)OCCC5F)nc(C(F)(F)F)c3C#N)C2)CC1` (stereo not drawn) [Compound 3-058, 4-(3-(4-Acryloylpiperazin-1-yl)azetidin-1-yl)-6-(4-fluoro-1-oxa-8-azaspiro[4.5]decan-8-yl)-2-(trifluoromethyl)nicotinonitrile], the IC50 with A549 cells was more than 5000 nM; with MIA PaCa-2 cells (Homo sapiens, MIA PaCa-2, 72 h), more than 5000 nM; at KRAS^G12C, 920 nM.

On to `C=CC(=O)N1CCN(C2CN(c3cc(N4CCC5(CC4)OC(C)C=C5C)nc(C(F)(F)F)c3C#N)C2)CC1` (single isomer, unassigned) [Compound 3-054-1], for which the IC50 in the test with A549 cells was more than 5000 nM; in the test with MIA PaCa-2 cells (72 h) it was 603 nM; at KRAS^G12C, 128 nM.

As for `C=CC(=O)N1CCN([C@@H]2CN(c3cc(N4CCC5(CC4)OC4(COC4)c4nccc(C)c45)nc(C(F)(F)F)n3)[C@@H]2C)CC1` [Compound 3-102, 1-(4-((2R,3R)-2-methyl-1-(6-(4′-methyl-1″H-dispiro[oxetane-3,7′-furo[3,4-b]pyridine-5′.4″-piperidin]-1″- yl)-2-(trifluoromethyl)-4-pyrimidinyl)-3-azetidinyl)-1-piperazinyl)-2-propen-1-one], the IC50 was more than 5000 nM with A549 cells; 77 nM in the test with MIA PaCa-2 cells (Homo sapiens, MIA PaCa-2, 72 h); 23 nM on KRAS^G12C.

Consider `C=CC(=O)N1CCN([C@@H]2CN(c3cc(N4CCC5(CC4)OCc4nccc(C)c45)nc(C(F)(F)F)n3)[C@@H]2C)CC1` [Compound 3-079, 1-(4-((2R,3R)-2-methyl-1-(6-(4-methyl-1′H,7H-spiro[furo[3,4-b]pyridine-5,4′-piperidin]-1′-yl)-2-(trifluoromethyl)-4-pyrimidinyl)-3-azetidinyl)-1-piperazinyl)-2-propen-1-one], for which the IC50 in the test on A549 cells is more than 5000 nM; with MIA PaCa-2 cells (Homo sapiens, MIA PaCa-2, 72 h), 180 nM; on KRAS^G12C, 81 nM.

Take `C=CC(=O)N1CCN([C@@H]2CN(c3cc(N4CCC5(CC4)OCC(CF)n4ncc(C)c45)nc(C(F)(F)F)n3)[C@@H]2C)CC1` (stereo partly drawn) [Compound 3-083, 1-(4-((2R,3R)-1-(6-(7′-(fluoromethyl)-3′-methyl-6′,7′-dihydrospiro[piperidine-4,4′-pyrazolo[5,1-c][1,4]oxazin]-1-yl)-2-(trifluoromethyl)pyrimidin-4-yl)-2-methylazetidin-3-yl)piperazin-1-yl)prop-2-en-1-one]: the IC50 in the test with A549 cells was more than 5000 nM; in the test with MIA PaCa-2 cells (Homo sapiens, MIA PaCa-2, 72 h) it was 171 nM; at KRAS^G12C, 75 nM.

Regarding `C=CC(=O)N1CCN([C@@H]2CN(c3cc(N4CCC5(CC4)OC[C@@H](C)n4ncc(C)c45)nc(C(F)(F)F)n3)[C@@H]2C)CC1` [Compound 3-100, 1-(4-((2R,3R)-1-(6-((7′R)-3′,7′-dimethyl-6′,7′-dihydro-1H-spiro[piperidine-4,4′-pyrazolo[5,1-c][1,4]oxazin]-1-yl)-2-(trifluoromethyl)-4-pyrimidinyl)-2-methyl-3-azetidinyl)-1-piperazinyl)-2-propen-1-one], the IC50 was more than 5000 nM in the test on A549 cells; 155 nM with MIA PaCa-2 cells (Homo sapiens, MIA PaCa-2, 72 h); 40 nM on KRAS^G12C.

With `C=CC(=O)N1CCN(C2CN(c3cc(N4CCC5(CC4)COc4ccccc45)nc(C(F)(F)F)c3C#N)C2)CC1` [Compound 3-015], the IC50 is more than 5000 nM with A549 cells; 2760 nM in the test with MIA PaCa-2 cells (Homo sapiens, MIA PaCa-2, 72 h); 669 nM at KRAS^G12C.

Take `C=CC(=O)N1CCN([C@@H]2CN(c3cc(N4CC[C@]5(C[C@H]4C)OC[C@@H](CO)n4ncc(C)c45)nc(C(F)(F)F)n3)[C@@H]2C)CC1` (single isomer, unassigned) [Compound 3-087-1]: the IC50 in the test with A549 cells was more than 5000 nM; in the test on MIA PaCa-2 cells (Homo sapiens, MIA PaCa-2, 72 h) it was 78 nM; at KRAS^G12C, 48 nM.

Regarding `C=CC(=O)N1CCN(C2CN(c3cc(N4CCC5(CC4)OC(C)C=C5C)nc(C(F)(F)F)c3C#N)C2)CC1` (stereo not drawn) [Compound 3-053, 4-(3-(4-Acryloylpiperazin-1-yl)azetidin-1-yl)-6-(2,4-dimethyl-1-oxa-8-azaspiro[4.5]dec-3-en-8-yl)-2-(trifluoromethyl)nicotinonitrile], the IC50 with A549 cells was more than 5000 nM; with MIA PaCa-2 cells (Homo sapiens, MIA PaCa-2, 72 h) it was 755 nM; on KRAS^G12C, 191 nM.

For the compound `C=CC(=O)N1CCN(C2CN(c3cc(N4CCC5(CC4)OCc4ncsc45)nc(C(F)(F)F)c3C#N)C2)CC1` [Compound 3-046, 4-(3-(4-Acryloylpiperazin-1-yl)azetidin-1-yl)-6-(4H-spiro[furo[3,4-d]thiazole-6,4′-piperidin]-1′-yl)-2-(trifluoromethyl)nicotinonitrile], the IC50 in the test with A549 cells was more than 5000 nM; in the test with MIA PaCa-2 cells (Homo sapiens, MIA PaCa-2, 72 h), 1140 nM; on KRAS^G12C, 253 nM.

For the compound `C=CC(=O)N1CCN([C@@H]2CN(c3cc(N4CC[C@]5(C[C@H]4C)OCC(CF)n4ncc(C)c45)nc(C(F)F)n3)[C@@H]2C)CC1` (stereo partly drawn) [Compound 3-084, 1-(4-((2R,3R)-1-(2-(difluoromethyl)-6-((2R,4R)-7′-(fluoromethyl)-2,3′-dimethyl-6′,7′-dihydrospiro[piperidine-4,4′-pyrazolo[5,1-c][1,4]oxazin]-1-yl)pyrimidin-4-yl)-2-methylazetidin-3-yl)piperazin-1-yl)prop-2-en-1-one], the IC50 in the test on A549 cells was more than 5000 nM; in the test with MIA PaCa-2 cells (Homo sapiens, MIA PaCa-2, 72 h) it was 172 nM; on KRAS^G12C, 176 nM.

As to `C=CC(=O)N1CCN([C@@H]2CN(c3cc(N4CCC5(CC4)OCC(COC)n4ncc(C)c45)nc(C(F)(F)F)n3)[C@@H]2C)CC1` (stereo partly drawn) [Compound 3-082, 1-(4-((2R,3R)-1-(6-(7′-(methoxymethyl)-3′-methyl-6′,7′-dihydrospiro[piperidine-4,4′-pyrazolo[5,1-c][1,4]oxazin]-1-yl)-2-(trifluoromethyl)pyrimidin-4-yl)-2-methylazetidin-3-yl)piperazin-1-yl)prop-2-en-1-one], the IC50 with A549 cells was more than 5000 nM; in the test on MIA PaCa-2 cells (Homo sapiens, MIA PaCa-2, 72 h), 145 nM; on KRAS^G12C, 69 nM.
